In paper PMC12267423, “Comparisons of pharmacokinetics of glimepiride in combination with Ojeok-san versus glimepiride alone: an open-label, one-sequence, two-treatment controlled clinical study” (Scientific Reports, 2025):
Like-named read-outs stand apart in the source and are kept apart here. Each block holds one compound with its values, some of them ahead of it.

What was measured:
[1] = human, in vivo, 4 mg
Description: (§1) Glimepiride (4 mg) was orally administered once daily on days 1–2 during period 1. Subsequently, the 4.35 g/pack of OJS was orally administered three times a day on days 4–11 during period 2, and glimepiride (4 mg) was co-administered once a day on days 9–10 during period 2. Glimepiride (4 mg) was administered at approximately 12:00 PM on days 1 and 9 and at approximately 8:00 AM on days 2 and 10. The 4.35 g/pack of OJS was administered thrice a day at 7:00–10:00 AM, 12:00–03:00 PM, and 6:00–9:00 PM on days 4–11. However, during hospitalization, OJS was administered at approximately 7:00 AM on days 9–10, just 1 h before glimepiride administration.
(§2) For the PK analysis of glimepiride, blood samples were collected immediately before the glimepiride administration on days 1 and 9 on the first day of each period. On days 2 and 10, blood samples were collected immediately before glimepiride administration (0 h) and 0.25, 0.5, 1, 1.5, 2, 2.5, 3, 3.5, 4, 5, 6, 8, 12, 15, 24, and 48 h after glimepiride administration.
(§3) The analyte was separated using a YMC hydrosphere C18 (50 × 2.0 mm, 3 μm; YMC, USA) at 40 ℃. The mobile phase consists of 5 mM ammonium formate and 100% acetonitrile (20:80, v/v) with a flow rate of 180 µL/min. The compounds were detected in the positive mode using an electrospray ionization source. […] A linear response of glimepiride was shown in the range of 2 to 1000 ng/mL (r^2 ≥ 0.9970), and the lower limit of quantification was determined as 2 ng/mL.
(§4) PK parameters were calculated using the noncompartmental method in Phoenix WinNonlin 8.3 (Certara USA Inc., Princeton, NJ, USA). […] The terminal elimination rate constant (kz) was estimated from the regression of the log-linear decrease in the plasma concentration-time profile. The terminal elimination half-life (t1/2) was calculated as the natural logarithm of 2 divided by kz. The area under the plasma concentration-time curve (AUC) from dosing to 24 h post-dosing (AUC0–24 h) and AUC0–48 h from dosing to 48 h post-dosing were calculated using the linear/log trapezoidal rule. The AUC from 0 to infinity (AUCinf) was calculated as AUC0–24 h + C24 / kz, where kz is the terminal elimination rate constant estimated from linear regression of the terminal phase of the log-linear plot of the plasma concentration-time curve. The metabolic ratio was calculated by dividing the M1 AUC0–24 h by glimepiride AUC0–24 h.
(§5) All statistical analyses were performed using SAS 9.4 (SAS Institute Inc. Cary, NC, USA). Descriptive statistics were calculated for continuous variables.

[2] = Pharmacokinetics of glimepiride and M1 in plasma, glimepiride alone versus with Ojeok-san, clinical crossover study; details: for Reduction of mean Cmax with OJS compared to glimepiride monotherapy: absorption phase; for CL/F / t1/2,0–24 h / t1/2,0–48 h / AUC(0-t) / half-life: mean ± SD; for Geometric mean ratio of AUC0–24 h (%, 90% CI) / Geometric mean ratio of AUC0–48 h (%, 90% CI) / Geometric mean ratio of AUCinf (%, 90% CI) / Geometric mean ratio of Cmax (%, 90% CI): glimepiride and OJS co-administration to glimepiride alone; for Tmax: median (min–max)
Description: as §1, §2, §3, §4, §5

[3] = cited from earlier work
[4] = system: healthy male subjects; assay: Safety and tolerability (adverse events) in healthy male subjects; type: in vivo, human
Description: Safety and tolerability were assessed during the study period. The occurrence of AEs was monitored, and the investigators assessed its causal relationship with the study drugs. Vital signs, 12-lead electrocardiography (ECGs), physical examinations, and laboratory tests were performed and reviewed.

[5] = system: serum glucose concentration; assay: Oral glucose tolerance test (pharmacodynamics) before and after glimepiride with or without OJS; details: glucose 50 g (glimepiride alone), 75 g (with OJS)
Description: Oral glucose tolerance tests (OGTT) were performed before and after glimepiride administration on days 1 and 9, and days 2 and 10, respectively, to assess the PD effects (Supplementary information).
The PD parameters included the maximum serum glucose concentration (Gmax), 2-hour serum glucose level (PP2), and area under the glucose concentration-time curve for 4 h after glucose administration (AUG0–4 h), which was calculated using the linear trapezoidal rule. The change values of Gmax, PP2, and AUG0–4 h were calculated by subtracting the baseline serum glucose concentrations from the corresponding post-administration values at each time point, following glimepiride administration with or without OJS. The maximum of these difference values was defined as the change in Gmax, and the value at 2 h as the change in PP2. The area under the curve from 0 to 4 h was calculated using linear trapezoidal method and defined as change in AUG0 − 4 h. Additionally, the percent change (%change) was calculated as: 100×(change value / baseline value).
The initial protocol stipulated the administration of 75 g of glucose; however, due to a lapse in protocol adherence by the administering clinical research nurse, which involved an incorrect glucose dosage of 50 g stemming from a failure to accurately verify the medication label, a deviation occurred (a report of this protocol violation was filed with the Institutional Review Board). Consequently, the plasma glucose assessment post-glimepiride monotherapy was conducted using 50 g of glucose, whereas the evaluation of the combined effect of glimepiride and OJS during the second admission utilized 75 g of glucose, introducing variance in glucose exposure across the two evaluations.

[6] = system: glucose; parameters: method as in PMID 33262578; details: 4 mg glimepiride, 75 g glucose load; cited from earlier work
[7] = glimepiride 4 mg qd + OJS 4.35 g tid, N = 13
[8] = glimepiride 4 mg qd alone, N = 16
[9] = OGTT after glimepiride, mean ± SD
[10] = glimepiride administered with a meal
[11] = male, human, plasma, oral, 4 mg

- AUC0–24 h [1]: 237.85 ± 61.69 ng·h/mL
- AUC0–48 h [1]: 243.05 ± 70.10 ng·h/mL
- AUCinf [1]: 258.17 ± 67.99 ng·h/mL
- Cmax [1]: 32.61 ± 8.08 ng/mL
- Tmax [1]: 5.0 (3.0–6.0) h
- Reduction of mean Cmax with OJS compared to glimepiride monotherapy [2]: ~14.67%
- CL/F [2, 7]: 17.13 ± 4.89 L/h
- t1/2,0–24 h [2, 7]: 8.04 ± 2.95 h
- t1/2,0–48 h [2, 7]: 8.02 ± 2.80 h
- CL/F [2, 8]: 16.40 ± 4.00 L/h
- t1/2,0–24 h [2, 8]: 6.73 ± 1.35 h
- t1/2,0–48 h [2, 8]: 7.08 ± 1.97 h
- Geometric mean ratio of AUC0–24 h (%, 90% CI) [2]: 91.77 (85.53–98.46) %
- Geometric mean ratio of AUC0–48 h (%, 90% CI) [2]: 92.48 (85.29–100.26) %
- Geometric mean ratio of AUCinf (%, 90% CI) [2]: 95.05 (89.10–101.40) %
- Geometric mean ratio of Cmax (%, 90% CI) [2]: 85.33 (77.77–93.62) %
SMILES: CCC1=C(C)CN(C(=O)NCCc2ccc(S(=O)(=O)NC(=O)NC3CCC(CO)CC3)cc2)C1=O (stereo not drawn) [M1, hydroxy glimepiride]

SMILES: Cc1ccc(-c2cc(C(F)(F)F)nn2-c2ccc(S(N)(=O)=O)cc2)cc1 [celecoxib]
- Decrease of AUC ([3]; co-administration with OJS): 11.5%
- Decrease of Cmax ([3]; co-administration with OJS): 27.5%

- Reduction of mean Cmax with OJS compared to glimepiride monotherapy [2]: approximately 16.86%
- CL/F [2, 7]: 3.68 ± 1.54 L/h
- Tmax ([2]; glimepiride 4 mg qd alone, day 2, plasma, N = 16): 4.5 (2.0–5.0) h
- CL/F [2, 8]: 3.28 ± 1.16 L/h
- t1/2,0–24 h [2, 8]: 8.53 ± 4.69 h
- Geometric mean ratio of AUC0–24 h (%, 90% CI) [2]: 86.43 (77.56–96.31) %
- Geometric mean ratio of AUC0–48 h (%, 90% CI) [2]: 86.98 (77.49–97.63) %
- Geometric mean ratio of AUCinf (%, 90% CI) [2]: 89.15 (81.72–97.26) %
- Geometric mean ratio of Cmax (%, 90% CI) [2]: 83.14 (69.96–98.81) %
- Geometric mean ratio of AUC0–24 h (%, 90% CI) ([2]; listed as glimepiride): 86.43 (77.56, 96.31) %
- Geometric mean ratio of Cmax (%, 90% CI) ([2]; listed as glimepiride): 83.14 (69.96, 98.81) %
- AUC(0-inf) [2, 11]: 1380 ± 507 ng·h/mL
- Cmax [2, 11]: 251 ± 87 ng/mL
- AUC(0-t) ([2]; male, human, plasma, oral, 4 mg, AUC0–24 h, glimepiride 4 mg qd alone, N = 16): 1280 ± 483 ng·h/mL
- AUC(0-t) ([2]; male, human, plasma, oral, 4 mg, AUC0–48 h, glimepiride 4 mg qd alone, N = 16): 1300 ± 519 ng·h/mL
- Tmax ([2]; male, human, plasma, oral, 4 mg, Tmax, glimepiride 4 mg qd alone, day 2, plasma, N = 16): 4.3 h
- half-life ([2]; male, human, plasma, oral, 4 mg, t1/2,0–24 h, glimepiride 4 mg qd alone, N = 16): 8.5 h
- half-life ([2]; male, human, plasma, oral, 4 mg, t1/2,0–48 h, glimepiride 4 mg qd alone, N = 16): 8.73 ± 4.78 h
- AUC(0-t) ([2]; male, human, plasma, oral, AUC0–24 h, glimepiride 4 mg qd + OJS 4.35 g tid, N = 13): 1130 ± 406 ng·h/mL
- AUC(0-t) ([2]; male, human, plasma, oral, AUC0–48 h, glimepiride 4 mg qd + OJS 4.35 g tid, N = 13): 1160 ± 468 ng·h/mL
- Tmax ([2]; male, human, plasma, oral, Tmax, glimepiride 4 mg qd + OJS 4.35 g tid, day 10, plasma, N = 13): 5 h
- half-life ([2]; male, human, plasma, oral, t1/2,0–24 h, glimepiride 4 mg qd + OJS 4.35 g tid, N = 13): 10.2 ± 4.84 h
- half-life ([2]; male, human, plasma, oral, t1/2,0–48 h, glimepiride 4 mg qd + OJS 4.35 g tid, N = 13): 9.33 ± 3.02 h
- Metabolic ratio (M1 AUC0–24 h / glimepiride AUC0–24 h), co-administration versus glimepiride alone ([2]; p = 0.1209): not significantly different
SMILES: CCC1=C(C)CN(C(=O)NCCc2ccc(S(=O)(=O)NC(=O)N[C@H]3CC[C@H](C)CC3)cc2)C1=O [Glimepiride]
- Subjects reporting adverse events ([4]; period 1 (glimepiride alone), 6 out of 16 subjects): 37.5%
- Subjects reporting adverse events ([4]; period 2 (OJS with glimepiride), 2 out of 13 subjects): 15.4%
- PP2, Post- ([5]; 2-hour serum glucose after glimepiride, mean ± SD): 95.75 ± 29.96 mg/dL
- AUG0–4 h % Change ([5]; 100×(change value / baseline value)): 16.15 ± 5.07%
- AUG0–3h, Post- [5, 9]: 334.12 ± 44.24 mg·h/dL
- Gmax, Post- [5, 9]: 173.88 ± 20.38 mg/dL
- AUG0–3h % Change [5]: 15.54 ± 5.82%
- Gmax % Change [5]: 25.48 ± 8.23%
- PP2 % Change [5]: 16.88 ± 14.00%
- AUG0–3h Change ([5]; post- versus pre-glimepiride): 61.07 ± 29.20 mg·h/dL
- AUG0–4 h Change ([5]; post- versus pre-glimepiride): 77.01 ± 32.47 mg·h/dL
- Gmax Change ([5]; post- versus pre-glimepiride): 45.63 ± 16.39 mg/dL
- PP2 Change ([5]; post- versus pre-glimepiride): 17.94 ± 13.67 mg/dL
- AUG0–3 h after glimepiride treatment [6]: 291.8 ± 48.5 mg·h/dL
- Gmax after glimepiride treatment [6]: 134.4 ± 26.9 mg/dL
- Reduction of Gmax [6]: 68.9 ± 25.1 mg/dL
- Metabolites recovered in the urine [3]: approximately 60%
- Reduction of mean AUC ([3]; co-administered with aspirin): 34%
- Reduction of mean Cmax ([3]; co-administered with aspirin): 4%
- Time to peak plasma concentrations ([3]; following oral administration): 2 to 3 h
- Decrease of mean AUC [3, 10]: 9%
- Decrease of mean Cmax [3, 10]: 8%
- Reduction of AUC ([3]; with colesevelam): 18%
- Reduction of Cmax ([3]; with colesevelam): 8%
